For 5 compounds, EC50 results are on record in PMC13578988, “No ancillary proteins are essential for the functional heterologous expression of the homomeric α6 nicotinic acetylcholine receptor from the brown castor tick Ixodes ricinus” (Current Research in Parasitology & Vector-borne Diseases, 2026).

One experiment deals with Asu-ACR-16. The settings on record: cited from earlier work.
The subject of experiment [1] is T1, Iricα6B (homomeric α6 nicotinic acetylcholine receptor, splice variant B).
T1 construct: full-length Iricα6B, 517 amino acids (exon 3b only), homopentamer
The experiment can be described thus: two-electrode voltage clamp in Xenopus laevis oocytes expressing Iricα6B (agonist dose-response). The format is cell-based, Ixodes ricinus.

As to `CC(=O)OCC[N+](C)(C)C` [ACh, acetylcholine], in the experiment on Asu-ACR-16, the EC50 was 5900 nM.

In experiment [1], `CC(=O)OCC[N+](C)(C)C` [acetylcholine] registered an EC50 of 2000 nM.

`CN/C(=N/CC1CCOC1)N[N+](=O)[O-]` (centres unmarked) [dinotefuran]: the EC50 in experiment [1] turned out to be 0.42 nM.

In experiment [1], `O=[N+]([O-])NC1=NCCN1Cc1ccc(Cl)nc1` [imidacloprid] registered a 50% effective concentration (EC50) of 11.6 nM.

Turning to `CN1CCC[C@H]1c1cccnc1` [nicotine], in the experiment with Asu-ACR-16, the EC50 was 4500 nM.
